We go through nine molecules from BindingDB's records for doi:10.1016/j.bmc.2010.10.023 (Chugai Pharmaceutical, 2010).

Molecules are shown by their SMILES.

The assay in a line: Antagonist activity at AR in human bicalutamide-resistant LNCAP cells assessed as inhibition of cell proliferation after 6 days.
The IC50 is the concentration needed to halve the response being measured. `CC1(C)C(=O)N(c2ccc(C#N)c(Cl)c2)C(=S)N1c1cncc(S(N)(=O)=O)c1` [5-[3-(3-Chloro-4-cyanophenyl)-5,5-dimethyl-4-oxo-2-thioxoimidazolidin-1-yl]pyridine-3-sulfonic acid amide]: the IC50 came to 50 nM. On to `CC1(C)C(=O)N(c2ccc(C#N)c(C(F)(F)F)c2)C(=S)N1c1cccc(S(N)(=O)=O)n1` [6-[3-(4-Cyano-3-trifluoromethylphenyl)-5,5-dimethyl-4-oxo-2-thioxoimidazolidin-1-yl]pyridine-2-sulfonic acid amide], for which the IC50 was determined as 100 nM.

For `CC1(C)C(=O)N(c2ccc(C#N)c(Cl)c2)C(=S)N1CCCS(N)(=O)=O` [3-[3-(3-Chloro-4-cyanophenyl)-5,5-dimethyl-4-oxo-2-thioxoimidazolidin-1-yl]propane-1-sulfonamide], the IC50 was 10 nM. The figure for `CC1(C)C(=O)N(c2ccc(C#N)c(C(F)(F)F)c2)C(=S)N1c1ccccc1` [4-(3-Phenyl-4,4-dimethyl-5-oxo-2-thioxoimidazolidin-1-yl)-2-trifluoromethylbenzonitrile] is 100 nM; for `CC1(C)C(=O)N(c2ccc(C#N)c(Cl)c2)C(=S)N1c1cccc(S(N)(=O)=O)c1` [3-[3-(3-Chloro-4-cyanophenyl)-5,5-dimethyl-4-oxo-2-thioxoimidazolidin-1-yl]benzenesulfonamide] it is 100 nM. The same measure for `CC1(C)C(=O)N(c2ccc(C#N)c(C(F)(F)F)c2)C(=S)N1c1cccc(S(N)(=O)=O)c1` [3-[3-(4-Cyano-3-trifluoromethylphenyl)-5,5-dimethyl-4-oxo-2-thioxoimidazolidin-1-yl]benzenesulfonamide]: 100 nM; for `CC1(C)C(=O)N(c2ccc(C#N)c(C(F)(F)F)c2)C(=S)N1c1cncc(S(N)(=O)=O)c1` [5-[3-(4-Cyano-3-trifluoromethylphenyl)-5,5-dimethyl-4-oxo-2-thioxoimidazolidin-1-yl]pyridine-3-sulfonic acid amide]: 30 nM; for `CC1(C)C(=O)N(c2ccc(C#N)c(C(F)(F)F)c2)C(=S)N1c1ccnc(S(N)(=O)=O)c1` [4-[3-(4-Cyano-3-trifluoromethylphenyl)-5,5-dimethyl-4-oxo-2-thioxoimidazolidin-1-yl]pyridine-2-sulfonic acid amide]: 80 nM. The figure for `CC1(C)C(=O)N(c2ccc(C#N)c(Cl)c2)C(=S)N1c1cccc(S(N)(=O)=O)n1` [6-[3-(3-Chloro-4-cyanophenyl)-5,5-dimethyl-4-oxo-2-thioxoimidazolidin-1-yl]pyridine-2-sulfonic acid amide] is 100 nM.
